Results taken from PubChem BioAssay (NCI).
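Dose response: 5 concentrations. Exposure: 48 h. Format: 96-well plates. Endpoint: linear interpolation; highest concentration if not reached. GI50: concentration for 50% inhibition of growth. TGI is the concentration that stops growth completely.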

Legend:
Experiment in all cases: NCI anticancer screen, dose series, 48 h
[1] = test system: LOX IMVI melanoma
[2] = test system: UO-31 renal
[3] = test system: HL-60(TB) leukemia
[4] = test system: A498 renal
[5] = test system: SF-295 CNS
[6] = test system: UACC-62 melanoma
[7] = test system: U251 CNS
[8] = test system: KM12 colon
[9] = test system: COLO 205 colon
[10] = test system: MCF7 breast
[11] = test system: EKVX NSCLC
[12] = test system: HCC-2998 colon
[13] = test system: T-47D breast
[14] = test system: SK-OV-3 ovarian
[15] = test system: MOLT-4 leukemia
[16] = test system: SR leukemia
[17] = test system: SNB-19 CNS
[18] = test system: DU-145 prostate
[19] = test system: M14 melanoma
[20] = test system: HS 578T breast
[21] = test system: CAKI-1 renal
[22] = test system: UACC-257 melanoma
[23] = test system: BT-549 breast
[24] = test system: OVCAR-3 ovarian
[25] = test system: NCI-H460 lung
[26] = test system: HOP-92 NSCLC
[27] = test system: SF-539 CNS
[28] = test system: NCI-H226 lung
[29] = test system: SW-620 colon
[30] = test system: SK-MEL-5 melanoma
[31] = test system: 786-0 renal
[32] = test system: IGROV1 ovarian
[33] = test system: NCI-H522 lung
[34] = test system: TK-10 renal
[35] = test system: SN12C renal
[36] = test system: K-562 leukemia
[37] = test system: RXF 393 renal
[38] = test system: CCRF-CEM leukemia
[39] = test system: MDA-MB-231 breast
[40] = test system: HOP-62 NSCLC
[41] = test system: SNB-75 CNS
[42] = test system: OVCAR-4 ovarian
[43] = test system: HT29 colon
[44] = test system: NCI/ADR-RES ovarian
[45] = test system: PC-3 prostate
[46] = test system: NCI-H23 lung
[47] = test system: ACHN renal
[48] = test system: RPMI-8226 leukemia
[49] = test system: OVCAR-5 ovarian
[50] = test system: MDA-MB-435
[51] = test system: HCT-15 colon
[52] = test system: SK-MEL-28 melanoma
[53] = test system: SK-MEL-2 melanoma
[54] = test system: SF-268 CNS
[55] = test system: HCT-116 colon
[56] = test system: A549 NSCLC
[57] = test system: MALME-3M melanoma

How did the GI50 [1] turn out when `Nc1cc2ccccc2c(O)c1O` was run?
The GI50 was 1.59 µM.

What about the TGI [1] of the same compound?
The TGI was 2.94 µM.

What about the GI50 [2] of the same compound?
Its GI50 is 2.53 µM.

What about the TGI [2] of the same compound?
The TGI was 10.3 µM.

And the GI50 [3]?
The GI50 was 2.08 µM.

And the TGI [3]?
The TGI was 5.77 µM.

And the GI50 [4]?
The GI50 was 16.1 µM.

What about the TGI [4] of the same compound?
Its TGI is 30.5 µM.

What about the GI50 [5] of the same compound?
Its GI50 is 15.7 µM.

What about the TGI [5] of the same compound?
Its TGI is 29.8 µM.

What about the GI50 [6] of the same compound?
Its GI50 is 5.65 µM.

And the TGI [6]?
The TGI was 18.7 µM.

And the GI50 [7]?
The GI50 was 1.91 µM.

What about the TGI [7] of the same compound?
Its TGI is 3.48 µM.

And the GI50 [8]?
The GI50 was 5.24 µM.

And the TGI [8]?
Its TGI is 18.9 µM.

And the GI50 [9]?
The GI50 was 15 µM.

And the TGI [9]?
Its TGI is 31.5 µM.

And the GI50 [10]?
Its GI50 is 1.88 µM.

And the TGI [10]?
The TGI was 4.32 µM.

And the GI50 [11]?
The GI50 was 10.7 µM.

What about the TGI [11] of the same compound?
Its TGI is 22.7 µM.

And the GI50 [12]?
Its GI50 is 12.8 µM.

What about the TGI [12] of the same compound?
Its TGI is 27.1 µM.

What about the GI50 [13] of the same compound?
The GI50 was 2.71 µM.

And the TGI [13]?
The TGI was 7.69 µM.

And the GI50 [14]?
Its GI50 is 15.4 µM.

And the TGI [14]?
Its TGI is 29 µM.

What about the GI50 [15] of the same compound?
Its GI50 is 2.49 µM.

What about the TGI [15] of the same compound?
The TGI was 6.27 µM.

And the GI50 [16]?
Its GI50 is 3.16 µM.

And the TGI [16]?
The TGI was 13.2 µM.

What about the GI50 [17] of the same compound?
Its GI50 is 15.6 µM.

And the TGI [17]?
Its TGI is 31.9 µM.

And the GI50 [18]?
Its GI50 is 13.4 µM.

What about the TGI [18] of the same compound?
Its TGI is 27.4 µM.

What about the GI50 [19] of the same compound?
The GI50 was 3.35 µM.

And the TGI [19]?
Its TGI is 12.3 µM.

What about the GI50 [20] of the same compound?
Its GI50 is 5.7 µM.

What about the TGI [20] of the same compound?
Its TGI is 96.2 µM.

And the GI50 [21]?
The GI50 was 1.67 µM.

And the TGI [21]?
Its TGI is 3.1 µM.

And the GI50 [22]?
The GI50 was 5.31 µM.

And the TGI [22]?
Its TGI is 18.1 µM.

What about the GI50 [23] of the same compound?
The GI50 was 13.3 µM.

What about the TGI [23] of the same compound?
Its TGI is 26.1 µM.

What about the GI50 [24] of the same compound?
The GI50 was 1.74 µM.

What about the TGI [24] of the same compound?
Its TGI is 3.52 µM.

And the GI50 [25]?
The GI50 was 13 µM.

And the TGI [25]?
The TGI was 32.1 µM.

And the GI50 [26]?
Its GI50 is 1.96 µM.

What about the TGI [26] of the same compound?
Its TGI is 5.75 µM.

What about the GI50 [27] of the same compound?
Its GI50 is 1.79 µM.

And the TGI [27]?
The TGI was 3.32 µM.

What about the GI50 [28] of the same compound?
Its GI50 is 2.36 µM.

What about the TGI [28] of the same compound?
The TGI was 5.84 µM.

What about the GI50 [29] of the same compound?
Its GI50 is 2.08 µM.

What about the TGI [29] of the same compound?
Its TGI is 4.33 µM.

And the GI50 [30]?
The GI50 was 15.1 µM.

What about the TGI [30] of the same compound?
Its TGI is 29.3 µM.

And the GI50 [31]?
Its GI50 is 1.85 µM.

And the TGI [31]?
The TGI was 3.28 µM.

What about the GI50 [32] of the same compound?
Its GI50 is 3.98 µM.

And the TGI [32]?
Its TGI is 16.3 µM.

What about the GI50 [33] of the same compound?
The GI50 was 1.97 µM.

What about the TGI [33] of the same compound?
Its TGI is 3.94 µM.

And the GI50 [34]?
The GI50 was 17.9 µM.

And the TGI [34]?
The TGI was 32.2 µM.

What about the GI50 [35] of the same compound?
The GI50 was 2.13 µM.

And the TGI [35]?
The TGI was 4.78 µM.

What about the GI50 [36] of the same compound?
The GI50 was 2.59 µM.

What about the TGI [36] of the same compound?
Its TGI is 8.11 µM.

And the GI50 [37]?
The GI50 was 1.83 µM.

What about the TGI [37] of the same compound?
The TGI was 3.25 µM.

And the GI50 [38]?
Its GI50 is 3 µM.

And the TGI [38]?
The TGI was 7.85 µM.

What about the GI50 [39] of the same compound?
Its GI50 is 1.96 µM.

What about the TGI [39] of the same compound?
The TGI was 5.22 µM.

And the GI50 [40]?
Its GI50 is 15.7 µM.

And the TGI [40]?
Its TGI is 30.1 µM.

And the GI50 [41]?
The GI50 was 1.94 µM.

And the TGI [41]?
The TGI was 18.4 µM.

And the GI50 [42]?
The GI50 was 1.53 µM.

What about the TGI [42] of the same compound?
The TGI was 2.88 µM.

And the GI50 [43]?
The GI50 was 19.6 µM.

And the TGI [43]?
Its TGI is 41.8 µM.

What about the GI50 [44] of the same compound?
The GI50 was 2.37 µM.

And the TGI [44]?
The TGI was 6.21 µM.

What about the GI50 [45] of the same compound?
Its GI50 is 1.73 µM.

What about the TGI [45] of the same compound?
Its TGI is 3.91 µM.

And the GI50 [46]?
The GI50 was 3.5 µM.

And the TGI [46]?
Its TGI is 17.9 µM.

What about the GI50 [47] of the same compound?
Its GI50 is 1.69 µM.

What about the TGI [47] of the same compound?
The TGI was 3.54 µM.

What about the GI50 [48] of the same compound?
The GI50 was 2.72 µM.

What about the TGI [48] of the same compound?
Its TGI is 7.13 µM.

What about the GI50 [49] of the same compound?
The GI50 was 3.13 µM.

What about the TGI [49] of the same compound?
Its TGI is 13.5 µM.

What about the GI50 [50] of the same compound?
The GI50 was 1.83 µM.

What about the TGI [50] of the same compound?
Its TGI is 3.38 µM.

And the GI50 [51]?
Its GI50 is 1.9 µM.

And the TGI [51]?
Its TGI is 4.08 µM.

And the GI50 [52]?
Its GI50 is 12.8 µM.

What about the TGI [52] of the same compound?
Its TGI is 27.4 µM.

And the GI50 [53]?
The GI50 was 14.4 µM.

And the TGI [53]?
The TGI was 33.1 µM.

What about the GI50 [54] of the same compound?
Its GI50 is 1.78 µM.

And the TGI [54]?
The TGI was 3.59 µM.

What about the GI50 [55] of the same compound?
Its GI50 is 2.07 µM.

And the TGI [55]?
Its TGI is 4.5 µM.

What about the GI50 [56] of the same compound?
Its GI50 is 20.5 µM.

And the TGI [56]?
The TGI was 41.4 µM.

And the GI50 [57]?
The GI50 was 1.87 µM.

What about the TGI [57] of the same compound?
The TGI was 3.83 µM.
